Experimental findings from ChEMBL document CHEMBL5385943, “Synthesis, biological evaluation and molecular docking study of pyrimidine linked thiazolidinedione derivatives as potential antimicrobial and antitubercular agents” (Bioorg Med Chem Lett, 2024) are described below.

Values after ≈ are worked out from the molar mass of the structure shown. Active and inactive are the calls of the source. The calls are words filed in the database; no cut-off is given here.

The subject of one data set is Candida albicans. Briefly: Antimicrobial activity against Candida albicans assessed as reduction in microbial growth. The class given is functional.
Data set [1] concerns Staphylococcus aureus. Briefly: Antimicrobial activity against Staphylococcus aureus assessed as reduction in microbial growth. The class given is functional.
Data set [2] has as its system Staphylococcus aureus. Briefly: Antimicrobial activity against methicillin-resistant Staphylococcus aureus assessed as reduction in microbial growth. The class given is functional.
Data set [3] concerns Mycobacterium tuberculosis. Briefly: Antitubercular activity against Mycobacterium tuberculosis H37Rv by agar dilution method. The class given is functional.
Data set [4] is described as follows: Cytotoxicity against human WI-38 cells assessed as reduction in cell growth. The class given is toxicity, cell-based.
The next data set deals with Bacillus subtilis. Briefly: Antimicrobial activity against Bacillus subtilis assessed as reduction in microbial growth. The class given is functional.
Data set [5] is described as follows: Selectivity index, ratio of CC50 for human WI-38 cells to MIC for Mycobacterium tuberculosis H37Rv. The class given is toxicity. The note with it: read-out: Selectivity Index.
Data set [6] has as its system Escherichia coli. Kind of data set: Antimicrobial activity against Escherichia coli assessed as reduction in microbial growth. The class given is functional.
The test system of data set [7] is Staphylococcus aureus. Briefly: Antibacterial activity against methicillin resistant Staphylococcus aureus at 1 times MIC measured after 180 mins by time kill assay. The class given is functional, organism-based.
Data set [8] has as its system Escherichia coli. Briefly: Antibacterial activity against Escherichia coli at 1 times MIC measured after 150 mins by time kill assay. The class given is functional, organism-based.
For data set [9], the system named is Staphylococcus aureus. Briefly: Antibacterial activity against methicillin resistant Staphylococcus aureus at 1 times MIC measured after 120 to 150 mins by time kill assay. The class given is functional, organism-based. The note with it: time 120-150 min.
Data set [10] concerns Escherichia coli. Briefly: Antibacterial activity against Escherichia coli at 1 times MIC measured after 120 to 150 mins by time kill assay. The class given is functional, organism-based. The note with it: time 120-150 min.
The subject of data set [11] is Staphylococcus aureus. Kind of data set: Antibacterial activity against methicillin resistant Staphylococcus aureus at 1 times MIC measured after 150 mins by time kill assay. The class given is functional, organism-based.

Usually MIC stands for the least concentration at which growth counts as inhibited. What is called CC50 is the concentration giving 50% cytotoxicity.

On to `OC(Cn1cncn1)(Cn1cncn1)c1ccc(F)cc1F` [FLUCONAZOLE], for which the MIC in the data set on Candida albicans was 14.9 µM.

Take `O=C1S/C(=C\c2cnc(C(F)(F)F)nc2)C(=O)N1C(=O)c1ccccc1`: the MIC in the data set with Staphylococcus aureus [1] came to 27.1 µM; in the data set with Candida albicans it was 30.6 µM; in the data set on Staphylococcus aureus [2], 62.5 µM; in [3], 5.62 µM (≈ 2.13 µg/mL); with Bacillus subtilis it was 19.5 µM; in the data set on Escherichia coli [6], 28.3 µM. Besides, the CC50 in data set [4] was above 50 µM. Besides, in data set [5], the selectivity ratio came to 8.89.

`O=C1S/C(=C\c2cnc(C(F)(F)F)nc2)C(=O)N1C(=O)c1cc(F)c(F)c(F)c1`: the MIC in the data set on Staphylococcus aureus [1] came to 8.6 µM; in the data set with Candida albicans, 9.5 µM; with Staphylococcus aureus [2] it was 15.4 µM; in data set [3] it was 0.32 µM (≈ 0.139 µg/mL); in the data set with Bacillus subtilis, 8.1 µM; in the data set on Escherichia coli [6] it was 9.7 µM. The CC50 in data set [4] was above 50 µM. For the same compound, the outcome in the data set with Staphylococcus aureus [7] and with Escherichia coli [8] was Active. Besides, in [5], the selectivity ratio was 156.

For the compound `CC(=O)NC[C@H]1CN(c2ccc(N3CCOCC3)c(F)c2)C(=O)O1` [LINEZOLID], the MIC in the data set with Staphylococcus aureus [2] was 23.1 µM.

In the case of `O=C1S/C(=C\c2cnc(C(F)(F)F)nc2)C(=O)N1C(=O)c1ccc(F)cc1`, the MIC in the data set on Staphylococcus aureus [1] was determined as 13.7 µM; with Candida albicans, 16.8 µM; in the data set on Staphylococcus aureus [2], 31.7 µM; in data set [3] it was 3.25 µM (≈ 1.29 µg/mL); in the data set with Bacillus subtilis, 12.8 µM; in the data set on Escherichia coli [6] it was 15.1 µM. In addition, the CC50 in data set [4] is above 50 µM. Besides, the selectivity ratio in data set [5] amounted to 15.4.

As for `O=C1S/C(=C\c2cnc(C(F)(F)F)nc2)C(=O)N1C(=O)c1ccc(O)cc1`, the MIC with Staphylococcus aureus [1] amounted to 37.4 µM; with Candida albicans, 53.7 µM; in the data set with Staphylococcus aureus [2] it was 79.2 µM; in data set [3], 10.9 µM (≈ 4.31 µg/mL); with Bacillus subtilis, 28.3 µM; in the data set with Escherichia coli [6], 40.9 µM. In addition, the CC50 in [4] was above 50 µM. Also, the selectivity ratio in data set [5] was 4.58.

Turning to `O=C1S/C(=C\c2cnc(C(F)(F)F)nc2)C(=O)N1C(=O)c1ccc([N+](=O)[O-])cc1`, the MIC in the data set with Staphylococcus aureus [1] stood at 10.9 µM; in the data set with Candida albicans, 12.9 µM; with Staphylococcus aureus [2] it was 24.1 µM; in [3], 1.06 µM (≈ 0.45 µg/mL); in the data set with Bacillus subtilis, 10.2 µM; in the data set with Escherichia coli [6], 11.7 µM. Further, in data set [4], the CC50 is above 50 µM. In [5], the selectivity ratio came out at 47.2.

In the case of `O=C1S/C(=C\c2cnc(C(F)(F)F)nc2)C(=O)N1C(=O)c1cc(F)cc(F)c1`, the MIC with Staphylococcus aureus [1] amounted to 10.3 µM; in the data set on Candida albicans, 11.8 µM; in the data set on Staphylococcus aureus [2], 21.9 µM; in data set [3], 0.71 µM (≈ 0.295 µg/mL); with Bacillus subtilis it was 9.7 µM; in the data set with Escherichia coli [6] it was 11.2 µM. Also, the CC50 in [4] was above 50 µM. In addition, the selectivity ratio in [5] came to 70.4.

For the compound `O=C1S/C(=C\c2cnc(C(F)(F)F)nc2)C(=O)N1C(=O)c1ccc(C(F)(F)F)cc1`, the MIC is 6.4 µM in the data set with Staphylococcus aureus [1]; 8.1 µM with Candida albicans; 10.8 µM in the data set on Staphylococcus aureus [2]; 0.22 µM (≈ 0.0984 µg/mL) in [3]; 6.1 µM in the data set with Bacillus subtilis; 8.4 µM in the data set with Escherichia coli [6]. For the same compound, in [4], the CC50 is above 50 µM. Further, the outcome in the data set with Staphylococcus aureus [9] and in the data set with Escherichia coli [10] was Active. In addition, the selectivity ratio in data set [5] was determined as 227.

`O=C1S/C(=C\c2cnc(C(F)(F)F)nc2)C(=O)N1C(=O)c1ccc(Br)cc1`: the MIC was determined as 20.7 µM in the data set with Staphylococcus aureus [1]; 4.7 µM in the data set with Candida albicans; 48.2 µM in the data set on Staphylococcus aureus [2]; 6.12 µM (≈ 2.8 µg/mL) in [3]; 17.3 µM in the data set on Bacillus subtilis; 22.6 µM in the data set with Escherichia coli [6]. For the same compound, the CC50 in data set [4] was above 50 µM. Besides, the selectivity ratio in [5] stood at 8.17.

In the case of `Cc1ccc(C(=O)N2C(=O)S/C(=C\c3cnc(C(F)(F)F)nc3)C2=O)cc1`, the MIC in the data set with Staphylococcus aureus [1] was found to be 30.6 µM; in the data set with Candida albicans, 41.3 µM; with Staphylococcus aureus [2], 71.8 µM; in data set [3], 8.49 µM (≈ 3.34 µg/mL); in the data set with Bacillus subtilis it was 24.9 µM; in the data set with Escherichia coli [6], 35.8 µM. Besides, in data set [4], the CC50 is above 50 µM. Also, the selectivity ratio in data set [5] was 5.89.

On to GENTAMICIN, for which the result in the data set with Staphylococcus aureus [11] was inactive.

For `CN[C@@H]1[C@H](O[C@H]2[C@H](O[C@H]3[C@H](O)[C@@H](O)[C@H](N=C(N)N)[C@@H](O)[C@@H]3N=C(N)N)O[C@@H](C)[C@]2(O)C=O)O[C@@H](CO)[C@H](O)[C@H]1O` [STREPTOMYCIN], the figures for the MIC in the data set on Staphylococcus aureus [1], in the data set with Bacillus subtilis and in the data set with Escherichia coli [6] were 11.9 µM, 11.5 µM and 14.3 µM, respectively.

The compound `NNC(=O)c1ccncc1` [ISONIAZID] showed an MIC in data set [3] of 0.35 µM (≈ 0.048 µg/mL). The CC50 in data set [4] was above 50 µM. Besides, the selectivity ratio in data set [5] came to 143.

`O=C1S/C(=C\c2cnc(C(F)(F)F)nc2)C(=O)N1C(=O)c1ccc(Cl)cc1`: the MIC turned out to be 16.8 µM in the data set with Staphylococcus aureus [1]; 19.4 µM in the data set on Candida albicans; 36.4 µM with Staphylococcus aureus [2]; 4.83 µM (≈ 2 µg/mL) in data set [3]; 14.4 µM with Bacillus subtilis; 17.8 µM with Escherichia coli [6]. Moreover, the CC50 in data set [4] is above 50 µM. Further, the selectivity ratio in [5] is 10.3.
